Counter-ions that a name gives are not always drawn. Like-named read-outs stand apart in the source and are kept apart here. Marks after values point to notes of the source that are not given here. Bounds are passed on as bounds.

In this assay the test system is E. coli ATCC 25922. The assay is described as follows: Phototoxicity test c.1) (LED array 430-435 nm, CFU count by Miles and Misra). It counts as cell-based, Escherichia coli. Particulars: for log reduction at 10 µM / log reduction at 50 µM: Escherichia coli, ATCC25922, light or radiation study; for log reduction at 10 µM: read-out: Effectiveness against E. Coli: Reduction in CFU in log10 at concentration of 10 μM; for log reduction at 50 µM: read-out: Effectiveness against E. Coli: Reduction in CFU in log10 at concentration of 50 μM. The protocol: A sample of the bacterial cell Staphylococcus. aureus (ATCC number: 25923) or Escherichia. coli (ATCC number: 25922) was removed from a cryo-freeze culture and cultured under aerobic conditions at 37° C. and 175 rpm overnight in an orbital shaker (MAXQ4000, Thermo Scientific, Dubuque, Iowa, USA). Growth was carried out in 20 mL Todd-Hewitt broth (Carl Roth, Karlsruhe, Germany) supplemented with 0.3% of yeast extract (AppliChem, Darmstadt, Germany).
Subsequently, dilutions (0, 5, 10, […] and 20% v/v of the overnight culture) and their absorptions were measured at 600 nm in triplicate for 100 μL (Infinite 200 M Pro, Tecan, Mannedorf, Switzerland). A calibration graph (Microsoft Excel) was used to calculate the volume which was required to produce 20 mL of a culture with an absorption of 0.05 at 600 nm. The volume calculated for the overnight culture was topped up with Todd-Hewitt broth (composition as above) to 20 mL and incubated for two hours at 37° C. with constant movement (175 rpm, MAXQ4000). The cultures were then in the exponential growth phase; the absorption at 600 nm was between 0.3 and 0.45.
A 2-hour culture was divided into 1800 μL aliquots. After centrifuging at 20° C., 830 rcf, 5 min (5417R centrifuge, Eppendorf, Hamburg, Germany), the pellets were re-suspended in phosphate buffer (Dulbeccos' Modified Phosphate Saline, DPBS, Sigma-Aldrich) with either 10 or 50 μM of the corresponding photosensitizer, wherein the final volume was kept at 1800 μL.
The solutions obtained were immediately incubated on the orbital shaker (see above for parameters) for 5 or 25 minutes.
Three controls were run at the same time for each photosensitizer. The “light only” control contained DPBS without photosensitizer. The “photosensitizer only” (“PS only”) control was incubated like the PDI samples, but not irradiated and kept strictly in darkness. A further control (double negative, “Co−/−”), received neither light nor photosensitizer.
After the incubation, duplicates of the samples (500 μL each) were transferred into a 24-well microtitre plate (Cellstar, Greiner Bio-One, Frickenhausen, Germany). The “PS only” and “Co −/−” samples were placed in their own microtitre plate which was packed in aluminium foil so as to be lightproof.
The irradiation was carried out under constant shaking (MTS4, IKA, Staufen, Germany, 175 rpm) from below on a LED array with maximum homogeneity of the lighting surface. All of the controls were shaken in the same manner. The technical data for the light source are shown in Table 2; the total dose of light applied was 33.8 J/cm^2.
The determination of the colony forming units (CFU) was carried out in accordance with the method published by Miles and Misra (Miles, A A; Misra, S S, Irwin, J O (1938 Nov.). “The estimation of the bactericidal power of the blood” The Journal of hygiene 38 (6): 732-49). In this regard, serial dilutions (1:10) of the corresponding bacterial suspension were produced in DPBS. 5×10 μL of each bacterial dilution was then dripped onto Todd-Hewitt plates (with broth, additional 1.5% agar (Agar-Agar, Kobe I, Roth, Karlsruhe, Germany) and incubated at 37° C. for 24 h. Next, the number of surviving colony forming units was determined. All of the tests were carried out four times.
The photosensitizers were tested against the bacterial strain E. coli ATCC 25922. FIGS. 1-20 show the measured surviving colony forming units (CFU).
The average reference control (arithmetic mean with standard deviation) (no light, no PS) was 3.6×10^8/mL. The logarithmic reduction after illumination is shown with respect to the reference control. The respective upper value, indicated by a *, refers to an incubation period of 5 min and the respectively lower value, indicated by a #, refers to an incubation period of 25 min.

[1] abbreviates: 5 min, 10 μM, incubation period 5 min (upper value, *), light dose 33.8 J/cm^2, approx. 435 nm, 60 min at 9.4 mW/cm^2, vs reference control.
Where [2] appears, read: 5 min, 50 μM, incubation period 5 min (upper value, *), light dose 33.8 J/cm^2, approx. 435 nm, 60 min at 9.4 mW/cm^2, vs reference control.
The mark [3] stands for this setting: 25 min, 10 μM, incubation period 25 min (lower value), light dose 33.8 J/cm^2, approx. 435 nm, 60 min at 9.4 mW/cm^2, vs reference control.
Setting [4] is: 25 min, 50 μM, incubation period 25 min (lower value), light dose 33.8 J/cm^2, approx. 435 nm, 60 min at 9.4 mW/cm^2, vs reference control.

Take `NCCOc1ccc(/C=C/C(=O)CC(=O)/C=C/c2ccc(OCCN)cc2)cc1` [Curcumin 0 hydrochloride]: the log reduction at 10 µM under setting [1] was more than 4 and the log reduction at 10 µM under setting [3] is more than 5. Moreover, the log reduction at 50 µM by setting is: under setting [2], more than 6; under setting [4], more than 6.
On to `COc1cc(OCCN)ccc1/C=C/C(=O)CC(=O)/C=C/c1ccc(OCCN)cc1OC` [Curcumin 01b hydrochloride], for which the log reduction at 10 µM is, setting by setting: under setting [1], more than 2; under setting [3], more than 3. Moreover, the log reduction at 50 µM under setting [2] was more than 5 and the log reduction at 50 µM under setting [4] is more than 7.
With `COc1cc(/C=C/C(=O)CC(=O)/C=C/c2cc(I)c(OCCN)c(OC)c2)cc(I)c1OCCN` [Curcumin 01c hydrochloride], the log reduction at 10 µM by setting is: under setting [1], more than 2; under setting [3], more than 2. Also, the log reduction at 50 µM by setting is: under setting [2], more than 3; under setting [4], more than 4.
For `Cc1cc(/C=C/C(=O)CC(=O)/C=C/c2ccc(OCCN)c(C)c2)ccc1OCCN` [Curcumin 01e hydrochloride], the log reduction at 10 µM under setting [1] was more than 5 and the log reduction at 10 µM under setting [3] was more than 5. The log reduction at 50 µM is more than 4 under setting [2] and more than 7 under setting [4].
Consider `COc1cc(/C=C/C(=O)CC(=O)/C=C/c2ccc(OCCOCCN)c(OC)c2)ccc1OCCOCCN` [Curcumin 02 hydrochloride], for which the log reduction at 10 µM runs as follows: under setting [1], more than 2; under setting [3], more than 4. The log reduction at 50 µM under setting [2] is more than 6 and the log reduction at 50 µM under setting [4] was more than 7.
For `NCCCOc1ccc(/C=C/C(=O)CC(=O)/C=C/c2ccc(OCCCN)c(OCc3ccccc3)c2)cc1OCc1ccccc1` [Curcumin 04 hydrochloride], in that order: more than 1, more than 3, more than 3 and more than 4.
Turning to `NCCOc1cc(/C=C/C(=O)CC(=O)/C=C/c2cc(OCCN)c(OCCN)c(OCCN)c2)cc(OCCN)c1OCCN` [Curcumin 05 hydrochloride], the log reduction at 10 µM by setting is: under setting [1], more than 4; under setting [3], more than 4. The log reduction at 50 µM by setting is: under setting [2], more than 7; under setting [4], more than 6.
Regarding `NCCOc1cc(/C=C/C(=O)CC(=O)/C=C/c2ccc(OCCOCCOCCO)c(OCCN)c2)ccc1OCCOCCOCCO` [Curcumin 08 hydrochloride], the log reduction at 50 µM by setting is: under setting [2], approximately 1; under setting [4], more than 1.
For `COc1cc(/C=C/C(=O)C2CCC/C(=C\c3ccc(OCCN)c(OC)c3)C2=O)ccc1OCCN` (stereo not shown) [Curcumin 09b hydrochloride], in that order: more than 1 and more than 2.
For `COc1cc(/C=C/C(=O)CC(=O)/C=C/c2ccc(OCCC[N+](C)(C)C)c(OC)c2)ccc1OCCC[N+](C)(C)C` [Curcumin 10a hydrochloride, 3,3′-(4,4′-((1E,6E)-3,5-dioxohepta-1,6-diene-1,7-diyl)bis(2-methoxy-4,1-phenylene))bis(oxy)bis(N,N,N-trimethylpropan-1-aminium) chloride], for the setting “5 min”, the log reduction at 10 µM is more than 1 and the log reduction at 50 µM was more than 5. Where the note is “25 min”, the log reduction at 10 µM was more than 1 and the log reduction at 50 µM was more than 5.
Consider `COc1cc(/C=C/C(=O)CC(=O)/C=C/c2ccc(OCCNC(=N)N)c(OC)c2)ccc1OCCNC(=N)N` [Curcumin 10b hydrochloride], for which the log reduction at 10 µM by setting is: under setting [1], more than 5; under setting [3], more than 4. For the same compound, the log reduction at 50 µM reads like this: under setting [2], more than 7; under setting [4], more than 6.
Taken in the same sequence, the figures for `COc1cc(/C=C/C(=O)CC(=O)/C=C/c2ccc(OCCC[n+]3ccccc3)c(OC)c2)ccc1OCCC[n+]1ccccc1` [Curcumin 10c hydrochloride, 1,1′-(3,3′-(4,4′-((1E,6E)-3,5-dioxohepta-1,6-diene-1,7-diyl)bis(2-methoxy-4,1-phenylene))bis(oxy)bis(propane-3,1-diyl))dipyridinium chloride] were more than 4, more than 5, more than 7 and more than 7.
As for `COc1ccc(/C=C/C(=O)CC(=O)/C=C/c2ccc(OCCN)c(OC)c2)cc1OC` [Curcumin 11b hydrochloride], the log reduction at 10 µM by setting is: under setting [1], approximately 1; under setting [3], more than 1. Moreover, the log reduction at 50 µM is, setting by setting: under setting [2], approximately 3; under setting [4], more than 3.
For `NCCOc1ccc(/C=C/C(=O)CC(=O)/C=C/c2ccc(OCCN)c3ccccc23)c2ccccc12` [Curcumin 12a hydrochloride], in that order: more than 1, more than 4, more than 6 and more than 6.
Taken in the same sequence, the figures for `COc1ccc(/C=C/C(=O)CC(=O)/C=C/c2ccc(OCCN)c(OCCN)c2)cc1OCCN` [Curcumin 13b hydrochloride] were more than 7, more than 7, more than 7 and more than 7.
For the compound `COc1cc(/C(C)=C(\C)C(=O)CC(=O)/C(C)=C(\C)c2ccc(OCCN)c(OC)c2)ccc1OCCN` [Curcumin 14b hydrochloride], under setting [4], the log reduction at 50 µM is more than 1.
As for “(1E,6E)-1,7- bis(4-(2- aminoethoxy)-3- methoxy- phenyl)hepta-1,6- diene-3,5-dione hydrochloride- zinc complex [Curcumin 01a zinc complex]”, the “Effectiveness against E. Coli: Reduction in CFU in log10 at concentration of 10 μM” value is >3* log10 (10 μM, incubation period 5 min (upper value, *), light dose 33.8 J/cm^2, approx. 435 nm, 60 min at 9.4 mW/cm^2, vs reference control) and more than 2 log10 (10 μM, incubation period 25 min (lower value), light dose 33.8 J/cm^2, approx. 435 nm, 60 min at 9.4 mW/cm^2, vs reference control). Besides, the “Effectiveness against E. Coli: Reduction in CFU in log10 at concentration of 50 μM” value reads like this: (50 μM, incubation period 5 min (upper value, *), light dose 33.8 J/cm^2, approx. 435 nm, 60 min at 9.4 mW/cm^2, vs reference control) >5* log10; (50 μM, incubation period 25 min (lower value), light dose 33.8 J/cm^2, approx. 435 nm, 60 min at 9.4 mW/cm^2, vs reference control) more than 5 log10.

For the origin of these results see patent US11191855B2, “1,7-diaryl-1,6-heptadiene-3,5-dione derivatives, methods for the production and use thereof” (UNIVERSITÄTSKLINIKUM REGENSBURG, priority 2015, dated 2021).
